Key:
Experiment in all cases: Microbiological challenge testing in BPW broth, graded subculture counts
Assay type in all cases: cell-based
[1] = test system: Burkholderia cepacia Wild type; settings: B. cepacia
Outline: (§1)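 Bacteria were grown in TSB with 1% dextrose at 35 °C ± 2 °C for at least 96 h, then added to BPW containing 1% dextrose plus test material to give 10^5 to 10^6 CFU/mL at time zero. Broth-alone controls were run in triplicate. Counts were made by spread plating on PCA.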

[2] = test system: Aeromonas sp. Wild type
Outline: as §1

[3] = test system: Streptococcus mutans ATCC 35668
Outline: as §1

[4] = test system: Staphylococcus aureus ATCC 25923; settings: S. aureus
Outline: as §1

[5] = test system: Escherichia coli ATCC 25922; settings: E. Coli
Outline: as §1

[6] = test system: Aspergillus niger Wild type; settings: A. niger
Outline: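 Wild-type A. niger, grown in TSB with 1% dextrose at 22 °C and on SABD until sporulation, was adjusted to 1.0×10^8 spores/vegetative cells (hemocytometer). It was inoculated in triplicate into BPW with 1% dextrose to give 10^5 to 10^6 CFU/mL at time zero. Counts were by spread plate on SABD, ≥48 h at 22 °C, CFU/mL = count × dilution factor.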

Q: What does the source list for `OCC1CCCC(CO)C1` (stereo not drawn) [1,3-CHDM, 1,3-cyclohexanedimethanol]?
A: Grade ([1]; 0.5% (wt/vol), 3 day): 5 (More than 10,000 colonies estimated (thus more than 100,000 CFU/mL)); Grade ([1]; 0.5% (wt/vol), 14 day): 5 (More than 10,000 colonies estimated (thus more than 100,000 CFU/mL)); Grade ([1]; 0.5% (wt/vol), 30 day): 5 (More than 10,000 colonies estimated (thus more than 100,000 CFU/mL)); Grade ([1]; 1.25% (wt/vol), 3 day): 4.7; Grade ([1]; 1.25% (wt/vol), 14 day): 4.7; Grade ([1]; 1.25% (wt/vol), 30 day): 4.7; Grade ([1]; 2.5% (wt/vol), 3 day): 4 (1000 to 10,000 colonies countable (thus 10,000 CFU/mL to 100,000 CFU/mL)); Grade ([1]; 2.5% (wt/vol), 14 day): 4 (1000 to 10,000 colonies countable (thus 10,000 CFU/mL to 100,000 CFU/mL)); Grade ([1]; 2.5% (wt/vol), 30 day): 4 (1000 to 10,000 colonies countable (thus 10,000 CFU/mL to 100,000 CFU/mL)); Grade ([1]; 5.0% (wt/vol), 3 day): 3 (100 to 1000 colonies (thus 1000 to 10,000 CFU/mL)); Grade ([1]; 5.0% (wt/vol), 14 day): 1 (0 to 51 colonies counted (thus 10 to 510 CFU/mL based on 0.1-mL sample)); Grade ([1]; 5.0% (wt/vol), 30 day): 3.3; Aeromonas sp growth grade, 3 day ([2]; 0.5% weight/volume): 5 (More than 10,000 colonies estimated (thus more than 100,000 CFU/mL)); Aeromonas sp growth grade, 14 day ([2]; 0.5% weight/volume): 4 (1000 to 10,000 colonies countable (thus 10,000 CFU/mL to 100,000 CFU/mL)); Aeromonas sp growth grade, 30 day ([2]; 0.5% weight/volume): 4 (1000 to 10,000 colonies countable (thus 10,000 CFU/mL to 100,000 CFU/mL)); Aeromonas sp growth grade, 3 day ([2]; 1.25% weight/volume): 4 (1000 to 10,000 colonies countable (thus 10,000 CFU/mL to 100,000 CFU/mL)); Aeromonas sp growth grade, 14 day ([2]; 1.25% weight/volume): 4 (1000 to 10,000 colonies countable (thus 10,000 CFU/mL to 100,000 CFU/mL)); Aeromonas sp growth grade, 30 day ([2]; 1.25% weight/volume): 4 (1000 to 10,000 colonies countable (thus 10,000 CFU/mL to 100,000 CFU/mL)); Aeromonas sp growth grade, 3 day ([2]; 2.5% weight/volume): 4 (1000 to 10,000 colonies countable (thus 10,000 CFU/mL to 100,000 CFU/mL)); Aeromonas sp growth grade, 14 day ([2]; 2.5% weight/volume): 4 (1000 to 10,000 colonies countable (thus 10,000 CFU/mL to 100,000 CFU/mL)); Aeromonas sp growth grade, 30 day ([2]; 2.5% weight/volume): 4 (1000 to 10,000 colonies countable (thus 10,000 CFU/mL to 100,000 CFU/mL)); Aeromonas sp growth grade, 3 day ([2]; 5.0% weight/volume): 4 (1000 to 10,000 colonies countable (thus 10,000 CFU/mL to 100,000 CFU/mL)); Aeromonas sp growth grade, 14 day ([2]; 5.0% weight/volume): 4 (1000 to 10,000 colonies countable (thus 10,000 CFU/mL to 100,000 CFU/mL)); Aeromonas sp growth grade, 30 day ([2]; 5.0% weight/volume): 4 (1000 to 10,000 colonies countable (thus 10,000 CFU/mL to 100,000 CFU/mL)); S. mutans growth grade, 3 day ([3]; 0.5% weight/volume): 5 (More than 10,000 colonies estimated (thus more than 100,000 CFU/mL)); S. mutans growth grade, 13 day ([3]; 0.5% weight/volume): 4 (1000 to 10,000 colonies countable (thus 10,000 CFU/mL to 100,000 CFU/mL)); S. mutans growth grade, 30 day ([3]; 0.5% weight/volume): 4 (1000 to 10,000 colonies countable (thus 10,000 CFU/mL to 100,000 CFU/mL)); S. mutans growth grade, 3 day ([3]; 1.25% weight/volume): 4 (1000 to 10,000 colonies countable (thus 10,000 CFU/mL to 100,000 CFU/mL)); S. mutans growth grade, 13 day ([3]; 1.25% weight/volume): 4 (1000 to 10,000 colonies countable (thus 10,000 CFU/mL to 100,000 CFU/mL)); S. mutans growth grade, 30 day ([3]; 1.25% weight/volume): 4 (1000 to 10,000 colonies countable (thus 10,000 CFU/mL to 100,000 CFU/mL)); S. mutans growth grade, 3 day ([3]; 2.5% weight/volume): 4 (1000 to 10,000 colonies countable (thus 10,000 CFU/mL to 100,000 CFU/mL)); S. mutans growth grade, 13 day ([3]; 2.5% weight/volume): 4 (1000 to 10,000 colonies countable (thus 10,000 CFU/mL to 100,000 CFU/mL)); S. mutans growth grade, 30 day ([3]; 2.5% weight/volume): 4 (1000 to 10,000 colonies countable (thus 10,000 CFU/mL to 100,000 CFU/mL)); S. mutans growth grade, 3 day ([3]; 5.0% weight/volume): 2 (52 to 100 colonies counted (thus 520 to 1000 CFU/mL)); S. mutans growth grade, 13 day ([3]; 5.0% weight/volume): 0; S. mutans growth grade, 30 day ([3]; 5.0% weight/volume): 0; Grade ([4]; 0.5% (wt/vol), 3 day): 5 (More than 10,000 colonies estimated (thus more than 100,000 CFU/mL)); Grade ([4]; 0.5% (wt/vol), 14 day): 5 (More than 10,000 colonies estimated (thus more than 100,000 CFU/mL)); Grade ([4]; 0.5% (wt/vol), 30 day): 5 (More than 10,000 colonies estimated (thus more than 100,000 CFU/mL)); Grade ([4]; 1.25% (wt/vol), 3 day): 4 (1000 to 10,000 colonies countable (thus 10,000 CFU/mL to 100,000 CFU/mL)); Grade ([4]; 1.25% (wt/vol), 14 day): 4 (1000 to 10,000 colonies countable (thus 10,000 CFU/mL to 100,000 CFU/mL)); Grade ([4]; 1.25% (wt/vol), 30 day): 4 (1000 to 10,000 colonies countable (thus 10,000 CFU/mL to 100,000 CFU/mL)); Grade ([4]; 2.5% (wt/vol), 3 day): 4 (1000 to 10,000 colonies countable (thus 10,000 CFU/mL to 100,000 CFU/mL)); Grade ([4]; 2.5% (wt/vol), 14 day): 4 (1000 to 10,000 colonies countable (thus 10,000 CFU/mL to 100,000 CFU/mL)); Grade ([4]; 2.5% (wt/vol), 30 day): 4 (1000 to 10,000 colonies countable (thus 10,000 CFU/mL to 100,000 CFU/mL)); Grade ([4]; 5.0% (wt/vol), 3 day): 4 (1000 to 10,000 colonies countable (thus 10,000 CFU/mL to 100,000 CFU/mL)); Grade ([4]; 5.0% (wt/vol), 14 day): 3 (100 to 1000 colonies (thus 1000 to 10,000 CFU/mL)); Grade ([4]; 5.0% (wt/vol), 30 day): 4 (1000 to 10,000 colonies countable (thus 10,000 CFU/mL to 100,000 CFU/mL)); Grade ([5]; 0.5% (wt/vol), 3 day): 5 (More than 10,000 colonies estimated (thus more than 100,000 CFU/mL)); Grade ([5]; 0.5% (wt/vol), 14 day): 5 (More than 10,000 colonies estimated (thus more than 100,000 CFU/mL)); Grade ([5]; 0.5% (wt/vol), 30 day): 5 (More than 10,000 colonies estimated (thus more than 100,000 CFU/mL)); Grade ([5]; 1.25% (wt/vol), 3 day): 5 (More than 10,000 colonies estimated (thus more than 100,000 CFU/mL)); Grade ([5]; 1.25% (wt/vol), 14 day): 4 (1000 to 10,000 colonies countable (thus 10,000 CFU/mL to 100,000 CFU/mL)); Grade ([5]; 1.25% (wt/vol), 30 day): 4 (1000 to 10,000 colonies countable (thus 10,000 CFU/mL to 100,000 CFU/mL)); Grade ([5]; 2.5% (wt/vol), 3 day): 5 (More than 10,000 colonies estimated (thus more than 100,000 CFU/mL)); Grade ([5]; 2.5% (wt/vol), 14 day): 4 (1000 to 10,000 colonies countable (thus 10,000 CFU/mL to 100,000 CFU/mL)); Grade ([5]; 2.5% (wt/vol), 30 day): 4 (1000 to 10,000 colonies countable (thus 10,000 CFU/mL to 100,000 CFU/mL)); Grade ([5]; 5.0% (wt/vol), 3 day): 4 (1000 to 10,000 colonies countable (thus 10,000 CFU/mL to 100,000 CFU/mL)); Grade ([5]; 5.0% (wt/vol), 14 day): 3 (100 to 1000 colonies (thus 1000 to 10,000 CFU/mL)); Grade ([5]; 5.0% (wt/vol), 30 day): 4 (1000 to 10,000 colonies countable (thus 10,000 CFU/mL to 100,000 CFU/mL)); Grade ([6]; 0.5% (wt/vol), 3 day): 5; Grade ([6]; 0.5% (wt/vol), 13 day): 5; Grade ([6]; 0.5% (wt/vol), 30 day): 5; Grade ([6]; 1.25% (wt/vol), 3 day): 5; Grade ([6]; 1.25% (wt/vol), 13 day): 4; Grade ([6]; 1.25% (wt/vol), 30 day): 4; Grade ([6]; 2.5% (wt/vol), 3 day): 4; Grade ([6]; 2.5% (wt/vol), 13 day): 4; Grade ([6]; 2.5% (wt/vol), 30 day): 4; Grade ([6]; 5.0% (wt/vol), 3 day): 2 (Countable (10 to 100 colonies)); Grade ([6]; 5.0% (wt/vol), 13 day): 2 (Countable (10 to 100 colonies)); Grade ([6]; 5.0% (wt/vol), 30 day): 4

Reference: patent US20100160454A1, “ANTIMICROBIAL AGENTS, COMPOSITIONS AND PRODUCTS CONTAINING THE SAME, AND METHODS OF USING THE COMPOSITIONS AND PRODUCTS” (Eastman Chemical Company, priority 2008, published 2010)
